Source: article PMC10395789, “Impacts of some metal ions on glutathione s-transferase in the liver of Chalcalburnus tarichi: an endemic species of Lake Van” (Turkish Journal of Chemistry, 2022)
Several values for one entry are separate records, joined by “and”; a condition that tells them apart may be missing. Identical values can stand only once.

Assays:
[1] = system: GST in the liver of Bonito; set-up: method as in Güller et al. 43; conditions: ref Güller et al. 43; cited from earlier work
[2] = system: C. tarichi Pallas liver GST; assay: Kinetic analysis (Km, Vmax, Lineweaver–Burk plot) of liver GST with GSH and CDNB as cosubstrates; format: biochemical, Chalcalburnus tarichi Pallas; conditions: substrate of liver GST
Protocol: (§1) GST activity was measured with the method in our previous study using CDNB as the model substrate.
Bradford procedure was used for protein quantity. The optimal pH and ionic strength were determined based on the activity of the pure enzyme described in a previous study. The effects of temperature on GST activity were made spectrophotometrically at temperatures ranging from 0 to 80 °C as described in a previous study. Stable pH ranges were 5.5–8.0 and 7.0–9.0. The enzyme solution was mixed with the buffers at the corresponding pH values. The activities were assayed at every 24 h for 4 days. Different concentrations of GSH and CDNB were used as substrates to determine the Vmax and Km values of the GST enzyme. Vmax and Km values were determined based on the Lineweaver–Burk plot.

[3] = system: C. tarichi Pallas liver GST; assay: In vitro inhibition effect of metals on GST enzyme activity; format: biochemical, Chalcalburnus tarichi Pallas; conditions: for Inhibition type / Ki: GSH substrate, Lineweaver–Burk plots; for IC50: purified liver GST, from Activity (%)–[metal ion] plots; for Ki: three metal concentrations, mean ± standard error of the mean
Protocol: C. tarichi Pallas fish were obtained from Van Lake basin. The liver samples of C. tarichi Pallas were immediately removed and preserved for experimental studies according to the cold chain principles. The livers were sliced into small pieces and successfully lysed by a homogenizer in 50 mM Tris/HCl buffer (pH 7.2) containing 1 mM DTT, 1 mM PMSF and 1 mM EDTA. Homogenate was centrifuged twice at 4 °C and 20,000 × g for 60 min. The supernatant was used in subsequent analyses. For GST purification, we followed the procedure described in our previous study.
as §1
IC50 was defined as the concentration of the compound causing 50% inhibition, and it was calculated based on Activity (%)–[metal ion] plots for each metal. The Ki values and inhibition types were found using Lineweaver–Burk plots. For the Ki study, we selected 3 inhibitor concentrations and made activity measurements relative to the control values, and then we calculated 1 / S and 1 / V values and plotted Ki plots. Analysis of the data and drawing of graphs were realized using GraphPad Prism ver. 8 for Mac (GraphPad Software, La Jolla California USA). […] Differences between data sets were considered statistically significant when the p-value was less than 0.05.

GST from muscle tissue = system: GST from muscle tissue; set-up: method as in Aksoy et al. 15; conditions: ref Aksoy et al. 15; cited from earlier work
[4] = system: GST from Lake Van fish gills; set-up: method as in PMID 25856719; conditions: Lake Van fish gill GST; cited from earlier work
GST from turkey livers = system: GST from turkey livers; set-up: method as in PMID 22989768; conditions: turkey liver GST; cited from earlier work

Row | Structure (SMILES) | Effect on GST enzyme activity [1] | Inhibition type [3] | IC50 [3] [µM] | further results
1 | [Pb+2] [Pb^2+] | did not show any impact | – | – | –
2 | [Fe+3] [Fe^3+] | did not show any impact | – | – | –
3 | O=[N+]([O-])c1ccc(Cl)c([N+](=O)[O-])c1 [CDNB] | – | – | – | Km [2]: 890 µM; Vmax [2]: 1.245 EU/mL and 1.25 EU/mL
4 | N[C@@H](CCC(=O)N[C@@H](CS)C(=O)NCC(=O)O)C(=O)O [GSH] | – | – | – | Km [2]: 60 µM; Vmax [2]: 0.562 EU/mL and 0.56 EU/mL
5 | [Co+2] [Co^2+] | – | Competitive | 446 | –
6 | [Cr+2] [Cr^2+] | did not show any impact | – | – | –
7 | [Zn+2] [Zn^2+] | showed inhibitory effects | – | – | –
8 | [Cu+2] [Cu^2+] | showed inhibitory effects | Competitive | 163 | Ki [3]: 49 ± 9 µM
9 | [Cd+2] [Cd^2+] | showed inhibitory effects | Competitive | 235 | Ki [3]: 117 ± 31 µM
10 | [Ag+] [Ag^+] | showed inhibitory effects | Noncompetitive | 0.21 | Inhibitory effect among all studied metal ions (GST from muscle tissue): best inhibitor; Inhibitory effect among the studied metal ions [4]: best inhibitory effect; Inhibitory effect among the studied metal ions ([3]; compared with Cu2+, Cd2+, Co2+): best inhibitory effect; Inhibitory effect on enzyme activity (GST from turkey livers): potent inhibitory effect
